The IC50 is the midpoint of a concentration-inhibition curve. A low value points to higher potency.

The results in this text go back to BindingDB's records for doi:10.1016/s0960-894x(98)00691-x (Novartis Pharmaceuticals, 1999).

This test is described as follows: Inhibition of Cyclin-dependent kinase 1, CDK1-related human bladder carcinoma (T24) cell proliferation.

As for `CCn1cnc2c(Nc3cccc(Cl)c3)nc(N[C@H]3CC[C@@H](O)CC3)nc21` [4-[6-(3-Chloro-phenylamino)-9-ethyl-9H-purin-2-ylamino]-cyclohexanol], the IC50 worked out at 830 nM.
